Legend:
[1] = target: T1, human serotonin transporter (hSERT) (Homo sapiens, UniProt P31645); experiment: Screening for human serotonin transporter (hSERT) antagonists using a scintillation proximity assay, competition with [3H]-Citalopram; type: binding; conditions: hSERT SPA, membranes of HEK-293 cells expressing recombinant hSERT
T1 construct: expressed in transfected cells; host or cells: HEK-293
Experimental: The screening assay of this example was used to determine the affinity of ligands at the hSERT transporter by competition with [^3H]-Citalopram.
Scintillation Proximity Assay (SPA) works by bringing radioligand within close proximity to the bead's scintillant to stimulate light emission. In this assay, the receptor-containing membranes were pre-coupled to the SPA beads and the binding of the appropriate radioligand to the transporter was measured. The light emission was proportional to the amount of bound radioligand. Unbound radioligand produced no signal as a result of distant proximity to scintillant (lack of energy transfer). […]
(§1) Cell membranes were prepared using a membrane preparation buffer of 50 mM TRIS (pH 7.4). […] After a second centrifugation, the pellet was re-homogenized and brought to a final volume determined during the assay. […]
The % inhibition was calculated for each compound tested [(Compound counts per minute (CPM) at maximum concentration-Non-Specific CPM)/Total CPM*100]. […]
[formula] where max=total binding, min=non specific binding, x=concentration (M) of the tested compound and n=Hill slope. The inhibition dissociation constant (Ki) of each compound was determined according to the method of Cheng-Prusoff and then converted into negative logarithm (pKi) of the Ki.

[2] = target: T2, human norepinephrine transporter (hNET) (Homo sapiens, UniProt P23975); experiment: Screening for compounds active at human norepinephrine transporter (hNET) using a scintillation proximity assay, competition with [3H]-Nisoxetine; type: binding; conditions: hNET SPA, membranes of HEK-293 cells expressing recombinant hNET
T2 construct: expressed in transfected cells; host or cells: HEK-293 (Clone: HEK-hNET #2)
Experimental: This assay was used to determine the affinity of ligands for the hNET transporter by competition with [^3H]-Nisoxetine. As in the hSERT assay of the above example, receptor-containing membranes were pre-coupled to the SPA beads and the binding of the appropriate radioligand to the transporter was measured. The light emission was proportional to the amount of bound radioligand, with unbound radioligand producing no signal.
HEK-293 cells (Tatsumi et al., Eur. J. Pharmacol. 1997, 30, 249-258) stably expressing recombinant hNET (Clone: HEK-hNET #2) were maintained with media (DMEM hi glucose with 10% FBS, 300 μg/ml G418 and 2 mM L-Glutamine) and incubated at 37° C. with 5% CO2. Cells were released from culture flasks using PBS for 1-2 minutes. […]
as §1
^3[H] […] The mixtures were allowed to stand at room temperature for one hour, and were then counted on a Packard TopCount LCS, a generic SPA counting protocol settings (Energy Range: Low, Efficiency Mode: Normal, Region A: 1.50-35.00, Region B: 1.50-256.00, Count Time (min.): 0.40, Background Subtract: none, Half-Life Correction: no, Quench Indicator: tSIS, Platemap blank subtraction: No, Cross talk reduction: Off). […]

T1 sequence (P31645 whole entry): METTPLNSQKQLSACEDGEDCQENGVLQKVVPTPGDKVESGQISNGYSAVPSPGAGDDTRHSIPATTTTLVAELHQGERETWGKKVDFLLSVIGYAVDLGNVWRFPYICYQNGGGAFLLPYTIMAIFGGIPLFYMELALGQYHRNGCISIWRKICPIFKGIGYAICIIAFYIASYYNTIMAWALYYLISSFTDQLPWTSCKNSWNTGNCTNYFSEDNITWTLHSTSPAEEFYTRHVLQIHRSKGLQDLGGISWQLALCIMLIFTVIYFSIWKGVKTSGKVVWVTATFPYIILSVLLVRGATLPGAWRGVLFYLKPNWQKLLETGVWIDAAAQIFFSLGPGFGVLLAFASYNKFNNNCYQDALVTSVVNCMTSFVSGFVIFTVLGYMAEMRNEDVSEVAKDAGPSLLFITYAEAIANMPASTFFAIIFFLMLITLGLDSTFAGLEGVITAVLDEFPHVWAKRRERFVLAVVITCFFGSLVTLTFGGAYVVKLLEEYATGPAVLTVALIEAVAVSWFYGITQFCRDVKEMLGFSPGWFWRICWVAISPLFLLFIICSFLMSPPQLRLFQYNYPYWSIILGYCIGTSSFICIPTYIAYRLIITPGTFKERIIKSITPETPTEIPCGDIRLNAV
T2 sequence (P23975 whole entry): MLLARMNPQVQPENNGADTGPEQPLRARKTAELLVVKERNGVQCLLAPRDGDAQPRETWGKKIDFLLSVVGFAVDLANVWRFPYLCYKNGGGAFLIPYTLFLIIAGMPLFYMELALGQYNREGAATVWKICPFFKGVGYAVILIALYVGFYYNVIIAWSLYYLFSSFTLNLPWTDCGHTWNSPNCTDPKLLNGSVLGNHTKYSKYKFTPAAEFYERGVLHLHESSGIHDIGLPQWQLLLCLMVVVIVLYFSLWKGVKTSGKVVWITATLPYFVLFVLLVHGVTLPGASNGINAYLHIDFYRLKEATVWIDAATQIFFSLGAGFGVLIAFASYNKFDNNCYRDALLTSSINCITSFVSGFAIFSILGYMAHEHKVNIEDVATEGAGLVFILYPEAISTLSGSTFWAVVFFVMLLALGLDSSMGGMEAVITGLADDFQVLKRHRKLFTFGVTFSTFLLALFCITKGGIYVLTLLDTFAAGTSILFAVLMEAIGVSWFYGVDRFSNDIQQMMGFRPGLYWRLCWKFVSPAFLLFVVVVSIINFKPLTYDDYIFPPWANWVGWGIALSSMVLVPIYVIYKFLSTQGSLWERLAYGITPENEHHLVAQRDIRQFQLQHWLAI

For `CNCC[C@@H](c1ccccc1)c1c[nH]c2nccc(OC)c12` [compound 23, [(S)-3-(4-Methoxy-1H-pyrrolo[2,3-b]pyridin-3-yl)-3-phenyl-propyl]-methyl-amine], the IC50 [1] was about 1.78 nM and the IC50 [2] was about 17.8 nM.

— patent publication US7638517B2, “3-Amino-1-arylpropyl azaindoles and uses thereof” (Roche Palo Alto LLC, priority 2005, dated 2009)
